According to patent US20230158100A1, “TREATMENT OF PANX1 ASSOCIATES DISEASES” (NURITAS LIMITED, priority 2020, published 2023):
Like-named read-outs stand apart in the source and are kept apart here. No end group written: not given here. Cy5 = Cy5 cyanine dye label

What was measured:
[1] = cited from earlier work
[2] = Werle and Bernkop-Schnürch 2006; cited from earlier work
lipoproteins = details: binding to lipoproteins; cited from earlier work
PANX1 [3] = experiment: Retrogenix cell microarray, confirmation on fixed and live cells; type: binding, human; details: for binding / specific interaction with PANX1: fixed HEK293 cells, 0.01 and 0.05 μg/ml, two separate expression clones
Sequence of PANX1 (Q96RD7 1-400 limits assumed): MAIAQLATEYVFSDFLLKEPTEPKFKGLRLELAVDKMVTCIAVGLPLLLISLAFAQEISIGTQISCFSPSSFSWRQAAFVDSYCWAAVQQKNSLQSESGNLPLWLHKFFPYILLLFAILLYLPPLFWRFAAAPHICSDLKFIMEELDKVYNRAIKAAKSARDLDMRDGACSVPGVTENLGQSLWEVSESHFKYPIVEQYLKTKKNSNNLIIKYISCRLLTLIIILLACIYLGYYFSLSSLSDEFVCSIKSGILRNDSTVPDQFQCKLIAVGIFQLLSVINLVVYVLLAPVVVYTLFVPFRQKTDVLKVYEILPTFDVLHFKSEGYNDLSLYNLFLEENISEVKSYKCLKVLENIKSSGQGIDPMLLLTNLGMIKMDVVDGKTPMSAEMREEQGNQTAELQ
Protocol: (§1) CY5-labelled peptide (SEQUENCE ID NO. 1; (0.01 & 0.05 μg/ml) was screened for binding against fixed HEK293 Cells expressing 5528 human plasma membrane proteins. Screening was carried across two replicates and initial hits were selected and screened in more specific confirmation assay.
(§2) To confirm extracellular membrane binding of the peptide in culture, receptor screening was carried out (Retrogenix). Retrogenix's cell microarray technology was used to screen for specific cell surface target interactions of a CY5 labelled peptide (pep_HTWCFL the CY5 labelled version of SEQUENCE ID NO. 1).
(§3) Under this condition, the test peptide was screened for binding against fixed human HEK293 cells, individually expressing 5528 full-length human plasma membrane proteins and secreted proteins.
(§4) Each primary hit was then re-expressed, along with two control receptors (CD20 (MS4A1) and EGFR), and re-tested with 0.01 μg/ml and 0.05 μg/ml test peptide, equal concentrations of a control peptide, and other positive and negative control treatments. […] Among these were PANX1 (from two separate expression clones), SLC35F2 and TACR1.

Panx1 [4] = target: T1, Panx1 (Homo sapiens, UniProt Q96RD7); experiment: Intracellular peptide concentration after PANX1 activation (Caco2); type: cell-based; parameters: endogenous in cells; host or cells: Caco2; details: Caco2 cells, before and after channel activation by increased extracellular calcium
T1 sequence (Q96RD7 whole entry): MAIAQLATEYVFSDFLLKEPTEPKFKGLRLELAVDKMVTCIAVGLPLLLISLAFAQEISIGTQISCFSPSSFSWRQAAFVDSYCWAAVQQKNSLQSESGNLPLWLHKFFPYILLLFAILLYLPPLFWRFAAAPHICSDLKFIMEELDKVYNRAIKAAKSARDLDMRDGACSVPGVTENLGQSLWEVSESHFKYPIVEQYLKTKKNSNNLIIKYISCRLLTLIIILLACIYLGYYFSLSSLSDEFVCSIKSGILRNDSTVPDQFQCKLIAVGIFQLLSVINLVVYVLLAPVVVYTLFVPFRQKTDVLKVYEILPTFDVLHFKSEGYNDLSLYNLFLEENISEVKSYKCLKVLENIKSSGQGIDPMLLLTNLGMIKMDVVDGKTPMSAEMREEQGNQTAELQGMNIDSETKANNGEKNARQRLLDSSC
Protocol: The peptide of the invention (SEQUENCE ID NO. 1) was added to cells (Caco2). The PANX1 channel was activated in cells by increasing extracellular calcium levels. The intracellular concentration of the peptide was measured before and after activation.

SLC35F2 [5] = target: T2, SLC35F2 (Homo sapiens, UniProt Q8IXU6); experiment: Retrogenix cell microarray, confirmation on fixed and live cells; type: binding; details: for binding / specific interaction with SLC35F2: fixed HEK293 cells, 0.01 and 0.05 μg/ml
T2 construct: individually expressing 5528 full-length human plasma membrane proteins and secreted proteins; host or cells: HEK293 (fixed and live)
T2 sequence (Q8IXU6 1-374): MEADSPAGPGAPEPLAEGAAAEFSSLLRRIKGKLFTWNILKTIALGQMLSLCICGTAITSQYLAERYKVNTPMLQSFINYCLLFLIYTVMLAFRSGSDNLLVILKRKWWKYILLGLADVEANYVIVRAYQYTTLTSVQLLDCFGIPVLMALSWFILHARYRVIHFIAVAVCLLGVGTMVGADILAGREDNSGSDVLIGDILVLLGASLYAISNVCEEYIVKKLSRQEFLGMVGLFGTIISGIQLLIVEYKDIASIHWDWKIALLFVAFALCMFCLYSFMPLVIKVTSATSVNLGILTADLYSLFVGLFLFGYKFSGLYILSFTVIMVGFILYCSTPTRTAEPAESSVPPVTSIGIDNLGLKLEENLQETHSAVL
Protocol: as §1, §2, §3, §4

[6] = target: T3, TACR1 (Substance P receptor) (Homo sapiens, UniProt P25103); experiment: as above; type: binding; details: for binding / specific interaction with TACR1: fixed HEK293 cells, 0.01 and 0.05 μg/ml
T3 construct: individually expressing 5528 full-length human plasma membrane proteins and secreted proteins; host or cells: HEK293 (fixed and live)
T3 sequence (P25103 whole entry): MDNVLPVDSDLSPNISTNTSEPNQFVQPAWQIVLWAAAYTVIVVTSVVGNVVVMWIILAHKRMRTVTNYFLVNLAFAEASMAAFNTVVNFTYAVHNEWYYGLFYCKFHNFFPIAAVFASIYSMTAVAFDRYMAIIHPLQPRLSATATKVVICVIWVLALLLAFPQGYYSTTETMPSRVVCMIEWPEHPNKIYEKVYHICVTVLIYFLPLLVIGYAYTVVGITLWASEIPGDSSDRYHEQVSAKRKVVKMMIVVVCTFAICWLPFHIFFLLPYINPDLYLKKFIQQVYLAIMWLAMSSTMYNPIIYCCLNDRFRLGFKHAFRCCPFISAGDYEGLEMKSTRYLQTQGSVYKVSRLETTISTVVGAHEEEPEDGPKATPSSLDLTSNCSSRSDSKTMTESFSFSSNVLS
Protocol: as §1, §2, §3, §4

α-SMA = experiment: Anti-fibrotic activity in human primary hepatic stellate cells (α-SMA); type: cell-based
Protocol: FIG. 5A and B illustrate peptide of SEQUENCE ID NO. […] (A) Confocal imaging of human stellate cells treated with TGF-β1 to stimulate expression of α-SMA before treatment with peptide (5 nM). (B) Quantification of α-SMA expression.
Human stellate cells were treated with TGF-β1 to stimulate expression of α-SMA (smooth muscle action; primary marker for fibrosis) before treatment with the peptide (5 nM; SEQUENCE ID NO. 1). Confocal imaging of the cells was undertaken.

Panx1 [7] = target: T1, Panx1; experiment: Ca2+ flux assay and flow cytometry in THP-1 cells; type: cell-based; parameters: endogenous in cells; host or cells: THP-1; details: 45 s preincubation with 1 μM peptide, ATP stimulation
Text: FIG. 9A, B and C illustrate downregulation of ATP mediated Ca2+ ions flux by the peptide (SEQUENCE ID NO. 1). ATP treatment of THP-1 cells causes an increase in detection of FITC labelled Ca^2+ ions (A). […] Comparison of FITC fluorescent units detected via flow cytometry, independent of the peptide and in the presence of the peptide (C).
Panx-1 binding with the peptide (SEQUENCE ID NO. 1) was investigated using a Ca^2+ flux assay and flow cytometry. Panx-1 plays an important role in regulating the Ca^2+ ion and ATP balance at the cell membrane. This relationship can be leveraged to monitor the activity of Panx1. Blocking Panx1 should lead to a significant decrease in Ca^2+ flux in the cell, in response to ATP stimulation.
THP-1 cells were incubated with a FITC fluorescent dye for a period of 30 min in order to label intracellular Ca^2+ ions. Cells were then stimulated with ATP to drive calcium flux from the cell, this increase in fluorescence is then detected by flow cytometry. Prior to ATP stimulation, the cells are incubated with 1 μM doses of the peptide in order to investigate if a drop in calcium flux is observed, this drop caused by binding of the peptide to Panx1, thus inhibiting ATP mediated calcium flux.

IL-8 = IL-8 secretion in LPS-treated HepG2 cells; type: cell-based; details: peptide 5 ng/ml for 24 h, then 100 ng/mL LPS for 24 h
Protocol: FIG. 4 illustrates peptide of SEQUENCE ID NO. […] HepG2 cells were treated with peptide (5 ng/ml) for 24 h before treating with 100 ng/mL of LPS for 24 h. Data presented are the mean±SEM of at least 2 independent experiments. (*p<0.05 **p<0.01 ***p<0.001)
HepG2 cells were treated with peptide (5 ng/ml) for 24 h before treating with 100 ng/mL of LPS for 24 h. Data presented are the mean±SEM of at least two independent experiments. (*p<0.05 **p<0.01 ***p<0.001)

[8] = test system: human skeletal muscle cells (HSKMC Cells); experiment: Cell penetration imaging in human skeletal muscle cells; type: cell-based; details: 60 mins incubation, CY5 tagged peptide
Protocol: An array of imaging studies was conducted to determine the kinetics and nature of the peptide (SEQUENCE ID NO. 1) interaction with target cell types. These experiments were required to determine if the peptide target was an intra or extra cellular protein. […] Control staining with the unlabelled CY5 dye should no uptake in this cell type.

[9] = test system: 5528 full-length human plasma membrane proteins and secreted proteins; experiment: Retrogenix cell microarray screen on fixed HEK293 cells; type: binding
Protocol: as §1, §2, §3, §4

[10] = target: T4, TACR1 (Substance P receptor) (human, UniProt P25103 1-407); experiment: cell microarray, CY5-labelled peptide on fixed HEK293 cells expressing human plasma membrane proteins
T4 construct: whole, on cells
T4 sequence (P25103 whole entry): as above

SLC35F2 [11] = target: T5, SLC35F2 (human, UniProt Q8IXU6 1-374); experiment: as above
T5 construct: whole, on cells
T5 sequence (looked up): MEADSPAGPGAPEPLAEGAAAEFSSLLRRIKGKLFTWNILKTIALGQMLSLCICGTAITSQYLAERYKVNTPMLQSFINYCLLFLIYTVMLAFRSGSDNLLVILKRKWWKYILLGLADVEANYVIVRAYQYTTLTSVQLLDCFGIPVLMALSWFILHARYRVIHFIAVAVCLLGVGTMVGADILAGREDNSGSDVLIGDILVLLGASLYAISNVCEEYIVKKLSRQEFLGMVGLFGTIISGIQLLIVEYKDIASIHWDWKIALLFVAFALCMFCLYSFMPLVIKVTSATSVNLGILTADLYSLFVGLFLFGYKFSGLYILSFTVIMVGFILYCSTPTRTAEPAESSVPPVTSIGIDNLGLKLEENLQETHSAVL

Molecule: CCNC(=O)[C@@H]1CCCN1C(=O)[C@H](CCCNC(=N)N)NC(=O)[C@H](CC(C)C)NC(=O)[C@@H](COC(C)(C)C)NC(=O)[C@H](Cc1ccc(O)cc1)NC(=O)[C@H](CO)NC(=O)[C@H](Cc1c[nH]c2ccccc12)NC(=O)[C@H](Cc1cnc[nH]1)NC(=O)[C@@H]1CCC(=O)N1 [buserelin]
- half-life ([1]; in humans, in words): much longer half-life

Molecule: NC(=O)CC[C@@H]1NC(=O)[C@H](Cc2ccccc2)NC(=O)[C@H](Cc2ccc(O)cc2)NC(=O)CCSSC[C@@H](C(=O)N2CCC[C@H]2C(=O)N[C@H](CCCN=C(N)N)C(=O)NCC(N)=O)NC(=O)[C@H](CC(N)=O)NC1=O [desmopressin]
- half-life ([1]; human, in vivo): 3.7 h

Molecule: C[C@@H](O)[C@@H]1NC(=O)[C@H](CCCCN)NC(=O)[C@@H](Cc2c[nH]c3ccccc23)NC(=O)[C@H](Cc2ccccc2)NC(=O)[C@@H](NC(=O)[C@H](N)Cc2ccccc2)CSSC[C@@H](C(=O)N[C@H](CO)[C@@H](C)O)NC1=O [octreotide]
- plasma half life time [2]: 1.5 h
- half-life ([1]; in humans): about 100 min
- fraction unbound (lipoproteins): 0.65

Molecule: NC(=O)CC[C@@H]1NC(=O)[C@H](Cc2ccccc2)NC(=O)[C@H](Cc2ccc(O)cc2)NC(=O)[C@@H](N)CSSC[C@@H](C(=O)N2CCC[C@H]2C(=O)N[C@@H](CCCN=C(N)N)C(=O)NCC(N)=O)NC(=O)[C@H](CC(N)=O)NC1=O [vasopressin]
- half-life ([1]; in humans): 0.167 to 0.583 h

Molecule: WKDEAGKPLVK [SEQUENCE ID NO. 1]
- binding / specific interaction with PANX1 (PANX1 [3]): Highly Selective Targets
- intracellular concentration of the peptide (Panx1 [4]): increased when the channel is activated
- binding / specific interaction with SLC35F2 (SLC35F2 [5]): Highly Selective Targets
- binding / specific interaction with TACR1 [6]: Highly Selective Targets
- anti-fibrotic activity compared with Elafibranor (α-SMA; equivalent molar doses): outperformed Elafibranor
- α-SMA expression (α-SMA; human stellate cells treated with TGF-β1, peptide 5 nM, confocal imaging): decrease in α-SMA expression
- ATP mediated Ca2+ ion flux (Panx1 [7]): blocks ATP mediated Ca^2+ ion flux
- secretion of IL-8 (IL-8): reduces the secretion of IL-8
- intracellular accumulation [8]: significant intracellular accumulation

Molecule: pep_HTWCFL: the CY5 labelled version of SEQUENCE ID NO. 1 (WKDEAGKPLVK; also: Cy5 label, position not given here)
- binding / specific interaction with PANX1 (PANX1 [3]): specific interactions
- signal to background (PANX1 [3]; fixed cells): greatest signal to background
- binding signal on live cells (PANX1 [3]; live cell microarray): lack of signals seen on live cells
- binding / specific interaction with SLC35F2 (SLC35F2 [5]): specific interactions
- specific interaction with SLC35F2 (SLC35F2 [5]; live cell microarray): specific interactions
- binding / specific interaction with TACR1 [6]: specific interactions
- specific interaction with TACR1 ([6]; live cell microarray): specific interactions
- primary hits in initial screening ([9]; 0.01 μg/ml test peptide on fixed cells for 30 minutes): 43
- specific interactions for the test peptide after re-expression of primary hits ([9]; re-tested with 0.01 μg/ml and 0.05 μg/ml test peptide, fixed cells): Nine

B1: CY5-labelled peptide (pep_HTWCFL, the CY5 labelled version of SEQUENCE ID NO. 1) (peptide)
peptide: WKDEAGKPLVK-Cy5
notes: also called test peptide; C-terminal CY5 Tagged peptide
- binding result [10]: binds
- binding result (SLC35F2 [11]): binds
